Data reported in ChEMBL document CHEMBL5104217, “Identification of a Target Site for Covalent Inhibition of Protein Phosphohistidine Phosphatase 1” (ACS Med Chem Lett, 2022).
Calls of active or inactive are those of the source. No cut-off for these calls is given here.

How the values were obtained:
[1] = target: T1, 14 kDa phosphohistidine phosphatase (Homo sapiens) (UniProt Q9NRX4); assay: Inhibition of human PHPT1 expressed in Escherichia coli BL21 (DE3) using pNPP as substrate assessed as Kinact by reciprocal analysis
T1 sequence (whole entry): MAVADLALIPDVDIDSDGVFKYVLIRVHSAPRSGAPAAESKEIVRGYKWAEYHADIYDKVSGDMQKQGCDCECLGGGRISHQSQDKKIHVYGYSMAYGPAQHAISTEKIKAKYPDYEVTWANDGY

[2] = target: T1, 14 kDa phosphohistidine phosphatase (Homo sapiens); assay: Inhibition of human PHPT1 expressed in Escherichia coli BL21 (DE3) using pNPP as substrate assessed as Kinact/Ki by reciprocal analysis
[3] = target: T2, 14 kDa phosphohistidine phosphatase (Homo sapiens, UniProt Q9NRX4); assay: Inhibition of human PHPT1 expressed in Escherichia coli BL21 (DE3) using pNPP as substrate assessed as inhibition constant by reciprocal analysis
T2 sequence (Q9NRX4 whole entry): T1 sequence (whole entry)

[4] = target: T1, 14 kDa phosphohistidine phosphatase (Homo sapiens); assay: Covalent inhibition of human PHPT1 expressed in Escherichia coli BL21 (DE3) assessed as increase in protein mass at 10 equiv incubated for 1 hr by RP-HPLC based ESI-MS analysis
[5] = species on record: Homo sapiens; assay: Covalent binding affinity to human PHPT1 C71A mutant expressed in Escherichia coli BL21 (DE3) assessed as covalent adduct formation at 10 equiv incubated for 1 hr by RP-HPLC based ESI-MS analysis
[6] = target: T1, 14 kDa phosphohistidine phosphatase (Homo sapiens); assay: Covalent inhibition of human PHPT1 expressed in Escherichia coli BL21 (DE3) using pNPP as substrate at 10 equiv preincubated for 60 mins by multimode microplate reader analysis
[7] = species on record: Homo sapiens; assay: Covalent binding affinity to human PHPT1 C69A mutant expressed in Escherichia coli BL21 (DE3) assessed as covalent adduct formation at 10 equiv incubated for 1 hr by RP-HPLC based ESI-MS analysis
[8] = target: T2, 14 kDa phosphohistidine phosphatase; assay: Inhibition of human PHPT1 expressed in Escherichia coli BL21 (DE3) using pNPP as substrate incubated for 1 hr by multimode microplate reader analysis
[9] = target: T1, 14 kDa phosphohistidine phosphatase (Homo sapiens); assay: Covalent inhibition of human PHPT1 expressed in Escherichia coli BL21 (DE3) assessed as inhibition of dephosphorylation of histidine-phosphorylated BSA at 10 equiv preincubated for 1 hr followed by substrate addition and measured for 150 secs by Western blot analysis; details: time 3750.0 sec

| Kinact [1] [s⁻¹] | Ratio [2] [M⁻¹ s⁻¹] | Ki [3] [µM] | inhibition [4] | Activity [5] | inhibition [6] | Activity [7] | IC50 [8] [µM] | inhibition [9] | SMILES |
| --- | --- | --- | --- | --- | --- | --- | --- | --- | --- |
| 0.0075 | 31 | 209 | – | – | – | – | – | – | CCN1C(=O)C=CC1=O [N-ETHYLMALEIMIDE] |
| 0.00267 | 14.6 | 183 | Active | Active | Active | Active | 18.3 | Active | C=C(CC)C(=O)c1ccc(OCC(=O)O)c(Cl)c1Cl [ETHACRYNIC ACID] |
